One test has as its target T1, hCA II (Homo sapiens, UniProt P00918).
T1 construct: from tissue; host or cells: human erythrocytes (fresh human blood)
Description: Esterase activity assay with 4-nitrophenylacetate as substrate, hCA II. In kind it is biochemical. Particulars: 4-nitrophenylacetate substrate, pH 7.4, 25 °C, enzyme purified from human erythrocytes, errors 2–5%, three assays. As to the method: (§1) Erythrocytes were purified from fresh human blood obtained from the Blood Centre of the Research Hospital at Atatürk University. The blood samples were centrifuged at 1500 rpm for 15 min and the plasma and buffy coat were removed. The red cells were isolated and washed twice with 0.9% NaCl, and hemolyzed with 1.5 volumes of ice-cold water. The ghost and intact cells were removed by centrifugation at 20 000 rpm for 30 min at 4 °C. The pH of the hemolysate was adjusted to 8.7 with solid Tris.[27] […] The affinity gel was washed with 25 mM Tris–HCl/22 mM Na2SO4 (pH 8.7). The human carbonic anhydrase (hCA I and hCA II) isozymes were eluted with 1 M NaCl/25 mM Na2HPO4 (pH 6.3) and 0.1 M CH3COONa/0.5 M NaClO4 (pH 5.6), respectively. All procedures were performed at 4 °C.[27]
(§2) Carbonic anhydrase activity was assayed by following the change in absorbance at 348 nm of 4-nitrophenylacetate (NPA) to 4-nitrophenylate ion over a period of 3 min at 25 °C using a spectrophotometer (Shimadzu UV-1800) according to the method described by Verpoorte et al.[28] The enzymatic reaction, in a total volume of 3.0 mL, contained 1.4 mL 0.05 M Tris–SO4 buffer (pH 7.4), 1 mL 3 mM 4-nitrophenylacetate, 0.5 mL H2O and 0.1 mL enzyme solution. A reference measurement was obtained by preparing the same cuvette without enzyme solution. The inhibitory effects of compounds were examined. All compounds were tested in triplicate at each concentration used. Different inhibitor concentrations were used. Control cuvette activity in the absence of inhibitor was taken as 100%. For each inhibitor an activity (%)–[inhibitor] graphs were drawn.[29]

The target of another test is T2, hCA I (Homo sapiens, UniProt P00915).
T2 construct: from tissue; host or cells: human erythrocytes (fresh human blood)
Description: Esterase activity assay with 4-nitrophenylacetate as substrate, hCA I. Particulars: for IC50: 4-nitrophenylacetate substrate, pH 7.4, 25 °C, enzyme purified from human erythrocytes, errors 2–5%, three assays; for hCA I inhibition, result in words: ranking within the series. The test is classed as biochemical. As to the method: as §1, §2

As usually defined, the IC50 is the concentration at which inhibition is half-maximal. Lower therefore signals higher potency.

T2 sequence (P00915 whole entry): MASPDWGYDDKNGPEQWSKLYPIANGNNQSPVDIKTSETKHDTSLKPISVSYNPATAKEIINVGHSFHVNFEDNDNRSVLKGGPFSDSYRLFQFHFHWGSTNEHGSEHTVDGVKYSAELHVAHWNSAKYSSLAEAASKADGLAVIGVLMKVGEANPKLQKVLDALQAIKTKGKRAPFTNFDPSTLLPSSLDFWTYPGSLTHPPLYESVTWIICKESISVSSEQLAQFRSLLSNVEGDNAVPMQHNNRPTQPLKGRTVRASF

Take `C[N+]1(CCOc2cc(CO[Si]3(OCc4cc(OCC[N+]5(C)CCOCC5)cc(OCC[N+]5(C)CCOCC5)c4)n4c5c6ccccc6c4N=C4N=C(N=c6c7ccccc7c(n63)=NC3=NC(=N5)c5ccccc53)c3ccccc34)cc(OCC[N+]3(C)CCOCC3)c2)CCOCC1` [ZM-1-SiQ]: the values for the IC50 against hCA II and against hCA I were 0.0544 µM and 0.071 µM, respectively.
As to `c1ccc2c(c1)C1=NC2=Nc2c3ccccc3c3n2[Si](OCc2cc(OCCN4CCOCC4)cc(OCCN4CCOCC4)c2)(OCc2cc(OCCN4CCOCC4)cc(OCCN4CCOCC4)c2)n2c(c4ccccc4c2=NC2=NC(=N3)c3ccccc32)=N1` [ZM-1-Si], the IC50 on hCA II amounted to 0.121 µM; against hCA I it was 0.165 µM. Moreover, on hCA I, the “hCA I inhibition, result in words” value is “moderately inhibited”.
Consider `CC[N+](C)(CC)c1cccc(OCCOCCO[Si]2(OCCOCCOc3cccc([N+](C)(CC)CC)c3)n3c4c5ccccc5c3N=C3N=C(N=c5c6ccccc6c(n52)=NC2=NC(=N4)c4ccccc42)c2ccccc23)c1` [ZM-5-SiQ], for which the IC50 against hCA II was determined as 0.0363 µM; against hCA I, 0.0243 µM.
Take `CCN(CC)c1cccc(OCCOCCO[Si]2(OCCOCCOc3cccc(N(CC)CC)c3)n3c4c5ccccc5c3N=C3N=C(N=c5c6ccccc6c(n52)=NC2=NC(=N4)c4ccccc42)c2ccccc23)c1` [ZM-5-Si]: the figures for the IC50 against hCA II and at hCA I were 0.0762 µM and 0.084 µM, respectively.
In the case of `CN(C)c1ccc(/C=C/C(=O)c2ccc(O[Si]3(Oc4ccc(C(=O)/C=C/c5ccc(N(C)C)cc5)cc4)n4c5c6ccccc6c4N=C4N=C(N=c6c7ccccc7c(n63)=NC3=NC(=N5)c5ccccc53)c3ccccc34)cc2)cc1` [ZT-Si, Bis[(2E)-3-[4-(dimethylamino)phenyl]-1-(4-phenoxy)prop-2-en-1-one]phthalocyaninato silicon(IV)], the IC50 on hCA II was 0.0172 µM; on hCA I it was 0.0178 µM. For the same compound, the “hCA I inhibition, result in words” value at hCA I is given as “among the best inhibitors”.

Values taken from paper PMC9078821, “The synthesis of axially disubstituted silicon phthalocyanines, their quaternized derivatives and first inhibitory effect on human cytosolic carbonic anhydrase isozymes hCA I and II” (RSC Advances, 2018).
